Assay results as given in patent US9249131B2, “Modulators of ATP-binding cassette transporters” (Vertex Pharmaceuticals Incorporated, priority 2003, dated 2016).

Biological target: T1, ΔF508-CFTR (Homo sapiens, UniProt P13569, DEL508-508)
T1 construct: expressed in transfected cells; host or cells: NIH3T3 mouse fibroblasts stably expressing ΔF508-CFTR for the optical, whole-cell and single-channel assays; Fisher rat epithelial (FRT) cells for Ussing chamber follow-up
Assay: Assays for ΔF508-CFTR correction and potentiator properties (membrane potential optical and electrophysiological methods)
Format: cell-based
Settings: CFTR modulation; for % Activity: % Efficacy; for EC50: tested using the above methods
In short: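 NIH3T3 mouse fibroblasts stably expressing ΔF508-CFTR were used, with membrane potential read by DiSBAC2(3)/CC2-DMPE FRET on VIPR. Correctors: 16 h compound exposure at 37 °C, then activation with forskolin plus genistein in Cl⁻-free medium. Potentiators: cells held 24 h at 27 °C, compound added in Cl⁻-free medium, 2-10 μM forskolin 22 s later (final Cl⁻ 28 mM).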

T1 sequence (P13569 with tags, fused parts or gaps DEL508-508): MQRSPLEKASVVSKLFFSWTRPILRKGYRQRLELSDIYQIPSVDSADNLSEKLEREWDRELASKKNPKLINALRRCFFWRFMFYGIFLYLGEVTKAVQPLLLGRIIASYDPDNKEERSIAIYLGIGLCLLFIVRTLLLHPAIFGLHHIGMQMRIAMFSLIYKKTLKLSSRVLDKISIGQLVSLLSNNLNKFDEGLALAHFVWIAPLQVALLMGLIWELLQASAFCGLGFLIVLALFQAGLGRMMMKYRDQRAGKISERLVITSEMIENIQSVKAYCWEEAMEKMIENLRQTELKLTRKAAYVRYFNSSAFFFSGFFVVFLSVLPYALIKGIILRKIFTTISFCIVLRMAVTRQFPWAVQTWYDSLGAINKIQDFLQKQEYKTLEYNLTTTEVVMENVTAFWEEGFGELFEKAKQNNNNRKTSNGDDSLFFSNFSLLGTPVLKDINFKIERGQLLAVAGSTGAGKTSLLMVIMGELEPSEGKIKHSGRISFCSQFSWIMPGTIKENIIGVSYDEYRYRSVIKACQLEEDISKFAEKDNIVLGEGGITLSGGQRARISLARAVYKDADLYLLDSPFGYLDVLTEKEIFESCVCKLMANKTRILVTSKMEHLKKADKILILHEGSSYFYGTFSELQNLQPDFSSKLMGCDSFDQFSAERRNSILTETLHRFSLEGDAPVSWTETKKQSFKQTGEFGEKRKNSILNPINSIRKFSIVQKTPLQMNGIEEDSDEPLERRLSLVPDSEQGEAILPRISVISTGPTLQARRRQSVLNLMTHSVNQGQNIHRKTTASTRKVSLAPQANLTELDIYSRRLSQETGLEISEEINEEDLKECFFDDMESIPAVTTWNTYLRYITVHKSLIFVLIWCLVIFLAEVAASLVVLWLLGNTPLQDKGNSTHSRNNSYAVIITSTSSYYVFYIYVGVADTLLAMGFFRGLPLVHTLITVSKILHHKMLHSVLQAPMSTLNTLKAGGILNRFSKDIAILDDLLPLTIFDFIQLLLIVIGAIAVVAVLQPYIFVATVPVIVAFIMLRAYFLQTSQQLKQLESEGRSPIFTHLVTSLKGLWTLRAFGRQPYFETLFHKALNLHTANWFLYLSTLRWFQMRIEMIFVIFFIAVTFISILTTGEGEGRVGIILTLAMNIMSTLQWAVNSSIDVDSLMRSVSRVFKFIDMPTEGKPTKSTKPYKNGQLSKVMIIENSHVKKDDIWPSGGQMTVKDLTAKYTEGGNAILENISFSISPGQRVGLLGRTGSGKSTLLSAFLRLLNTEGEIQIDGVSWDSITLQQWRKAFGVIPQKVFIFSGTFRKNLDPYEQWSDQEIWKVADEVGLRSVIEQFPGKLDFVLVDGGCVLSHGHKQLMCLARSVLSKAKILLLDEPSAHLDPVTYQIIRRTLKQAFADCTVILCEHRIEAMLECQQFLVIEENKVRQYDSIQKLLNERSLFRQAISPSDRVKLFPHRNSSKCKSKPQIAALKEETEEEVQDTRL

Row | Structure (SMILES) | % Activity | EC50 [µM]
1 | Cc1ccc(S(=O)(=O)N2CCN(C(C)C(=O)Nc3nc(-c4ccccc4)c(-c4ccccc4)s3)CC2)cc1 (stereo not drawn) [compound 198] | ++ (“++” means between 25% to 100%) | < 10
2 | CC(C(=O)Nc1nc(-c2ccccc2)cs1)N1CCN(S(=O)(=O)c2ccc(Br)cc2)CC1 (stereo not drawn) [compound 199] | +++ (“+++” means >100%) | < 10
3 | CC[C@@H](C(=O)Nc1ncc(Cc2ccccc2Cl)s1)c1ccccc1 [compound 201] | +++ (“+++” means >100%) | < 10
4 | CC[C@H](C(=O)Nc1ncc(Cc2ccccc2Cl)s1)c1ccccc1 [compound 202] | ++ (“++” means between 25% to 100%) | < 10
5 | CC[C@@H](C(=O)Nc1ncc(Cc2cccc(Cl)c2)s1)c1ccccc1 [compound 203] | ++ (“++” means between 25% to 100%) | < 10
6 | CC[C@H](C(=O)Nc1ncc(Cc2cccc(Cl)c2)s1)c1ccccc1 [compound 204] | ++ (“++” means between 25% to 100%) | < 10
7 | CC[C@H](C(=O)Nc1ncc(Cc2ccc(Cl)cc2)s1)c1ccccc1 [compound 205] | ++ (“++” means between 25% to 100%) | < 10
8 | CC(C)CC(=O)Nc1ncc(Cc2ccccc2Cl)s1 [compound 206] | ++ (“++” means between 25% to 100%) | < 10
9 | O=C(Nc1ncc(Cc2ccccc2Cl)s1)C1CC1 [compound 207] | ++ (“++” means between 25% to 100%) | < 10
10 | CCC(=O)Nc1ncc(Cc2ccccc2Cl)s1 [compound 208] | ++ (“++” means between 25% to 100%) | 25 to 60
11 | O=C(Nc1ncc(Cc2ccccc2Cl)s1)C1CCCC1 [compound 209] | ++ (“++” means between 25% to 100%) | < 10
12 | CCCC(=O)Nc1ncc(Cc2ccccc2Cl)s1 [compound 210] | ++ (“++” means between 25% to 100%) | 10 to 25
13 | CN(C)C(C(=O)Nc1ncc(Cc2ccccc2Cl)s1)c1ccccc1 (stereo not drawn) [compound 211] | ++ (“++” means between 25% to 100%) | < 10
14 | CCN(CC)C(C(=O)Nc1ncc(Cc2ccccc2Cl)s1)c1ccccc1 (stereo not drawn) [compound 212] | ++ (“++” means between 25% to 100%) | < 10
15 | CCNC(C(=O)Nc1ncc(Cc2ccccc2Cl)s1)c1ccccc1 (stereo not drawn) [compound 213] | ++ (“++” means between 25% to 100%) | 10 to 25
16 | O=C(Nc1ncc(Cc2ccccc2Cl)s1)C(c1ccccc1)N1CCOCC1 (stereo not drawn) [compound 214] | ++ (“++” means between 25% to 100%) | 10 to 25
17 | O=C(Nc1ncc(Cc2ccccc2Cl)s1)C(c1ccccc1)N1CCCCC1 (stereo not drawn) [compound 215] | ++ (“++” means between 25% to 100%) | < 10
18 | COC(C(=O)Nc1ncc(Cc2ccccc2Cl)s1)c1ccccc1 (stereo not drawn) [compound 216] | ++ (“++” means between 25% to 100%) | 10 to 25
19 | CNC(C(=O)Nc1ncc(Cc2ccccc2Cl)s1)c1ccccc1 (stereo not drawn) [compound 217] | ++ (“++” means between 25% to 100%) | 25 to 60
20 | CCC(NC)C(=O)Nc1ncc(Cc2ccccc2Cl)s1 (stereo not drawn) [compound 218] | ++ (“++” means between 25% to 100%) | 25 to 60
21 | CCC(OC)C(=O)Nc1ncc(Cc2ccccc2Cl)s1 (stereo not drawn) [compound 219] | ++ (“++” means between 25% to 100%) | 25 to 60
22 | CCNC(CC)C(=O)Nc1ncc(Cc2ccccc2Cl)s1 (stereo not drawn) [compound 220] | ++ (“++” means between 25% to 100%) | 25 to 60
23 | CCC(C(=O)Nc1ncc(Cc2ccccc2Cl)s1)N(CC)CC (stereo not drawn) [compound 221] | ++ (“++” means between 25% to 100%) | 10 to 25

Row | Structure (SMILES) | % Activity | EC50 [µM]
24 | CCC(C(=O)Nc1ncc(Cc2ccccc2Cl)s1)N(C)C (stereo not drawn) [compound 222] | ++ (“++” means between 25% to 100%) | 25 to 60
25 | CCC(C(=O)Nc1ncc(Cc2ccccc2Cl)s1)N1CCOCC1 (stereo not drawn) [compound 223] | ++ (“++” means between 25% to 100%) | 25 to 60
26 | CCC(C(=O)Nc1ncc(Cc2ccccc2Cl)s1)N1CCSCC1 (stereo not drawn) [compound 224] | ++ (“++” means between 25% to 100%) | < 10
27 | CCC(C(=O)Nc1ncc(Cc2ccccc2Cl)s1)N1CCCCC1 (stereo not drawn) [compound 225] | ++ (“++” means between 25% to 100%) | < 10
28 | Cc1cccc(C(=O)Nc2ncc(-c3ccccc3)s2)c1 [compound 226] | ++ (“++” means between 25% to 100%) | 10 to 25
29 | COc1ccccc1-c1csc(NC(=O)c2cccc(Cl)c2)n1 [compound 227] | ++ (“++” means between 25% to 100%) | 10 to 25
30 | Cc1cccc(C(=O)Nc2nc(-c3ccccc3Cl)cs2)c1 [compound 228] | ++ (“++” means between 25% to 100%) | 10 to 25
31 | O=C(Nc1nc(-c2ccccc2Cl)cs1)c1cccc(Cl)c1 [compound 229] | ++ (“++” means between 25% to 100%) | 10 to 25
32 | Cc1ccc(C(=O)Nc2nc(-c3ccccc3Cl)cs2)cc1 [compound 230] | +++ (“+++” means >100%) | < 10
33 | COc1cccc(-c2csc(NC(=O)c3cccc(C)c3)n2)c1 [compound 231] | +++ (“+++” means >100%) | 10 to 25
34 | COc1cccc(-c2csc(NC(=O)c3cccc(Cl)c3)n2)c1 [compound 232] | ++ (“++” means between 25% to 100%) | 10 to 25
35 | O=C(Nc1ncc(-c2ccccc2)s1)c1cccc(Cl)c1 [compound 233] | ++ (“++” means between 25% to 100%) | 25 to 60
36 | CCOC(C(=O)Nc1ncc(Cc2ccccc2Cl)s1)c1ccccc1 (stereo not drawn) [compound 234] | ++ (“++” means between 25% to 100%) | 10 to 25
37 | O=C(Nc1ncc(Cc2ccccc2Cl)s1)C(c1ccccc1)n1cccn1 (stereo not drawn) [compound 235] | ++ (“++” means between 25% to 100%) | < 10
38 | COc1ccccc1Cc1cnc(NC(=O)C(C)(C)c2ccccc2)s1 [compound 237] | +++ (“+++” means >100%) | < 10
39 | CC(C)(C(=O)Nc1ncc(Cc2ccccc2Cl)s1)c1ccccc1 [compound 238] | +++ (“+++” means >100%) | < 10
40 | CCN(C)C(C(=O)Nc1ncc(Cc2ccccc2Cl)s1)c1ccccc1 (stereo not drawn) [compound 239] | ++ (“++” means between 25% to 100%) | < 10
41 | CN(C1CCCCC1)C(C(=O)Nc1ncc(Cc2ccccc2Cl)s1)c1ccccc1 (stereo not drawn) [compound 240] | ++ (“++” means between 25% to 100%) | < 10
42 | O=C(Nc1ncc(Cc2ccccc2Cl)s1)C(c1ccccc1)N1CCCC1 (stereo not drawn) [compound 241] | ++ (“++” means between 25% to 100%) | < 10
43 | CC1CCCN1C(C(=O)Nc1ncc(Cc2ccccc2Cl)s1)c1ccccc1 (stereo not drawn) [compound 242] | +++ (“+++” means >100%) | < 10
44 | CC1CCCN(C(C(=O)Nc2ncc(Cc3ccccc3Cl)s2)c2ccccc2)C1 (stereo not drawn) [compound 243] | +++ (“+++” means >100%) | < 10
45 | O=C(Nc1ncc(Cc2ccccc2Cl)s1)C(c1ccccc1)N1CCCC(CO)C1 (stereo not drawn) [compound 244] | ++ (“++” means between 25% to 100%) | < 10
